Results reported in patent EP0103030A1, “Polycyclic fused pyrazole compounds, useful as anti-inflammatory agents, and preparation thereof” (STERLING DRUG INC., priority 1982, dated 1984).

Experiments:
Assay type in all cases: in vivo
Mature female rats = test: Endocrine profile (thymus, adrenal and body weight after 2 weeks oral medication); details: compared with the controls
Method: The test procedures used to determine the biological activities of the compounds of the invention were carried out as follows: • Endocrine Profile: Mature female rats with an average body weight of 202 g and a body weight range of 15 g or less were medicated orally with test compound for 2 weeks. The test compound was prepared as a solution or suspension in 1% gum tragacanth or 0.75% methyl cellulose. On the day following the last medication, the rats were killed and the thymus and adrenal of each rat were removed, cleaned, and weighed. Body weights and food consumptions were also recorded.

[1] = tested on: Mature male rats were bilaterally adrenalectomized; test: Glycogenic activity (liver glycogen deposition test)
Excerpt: Glycogenic Activity: Mature male rats were bilaterally adrenalectomized 5 days prior to the test. These rats were medicated orally with the test compound for 5 days. Seven hours after the last medication, the rats (which have been fasted overnight) were anesthetized with sodium pentobarbital and a portion of one lobe of the liver was removed and frozen on dry ice for subsequent glycogen determination.

Male rats = test: Anti-inflammatory activity (a-tocopherol pouch test)
Method: A rapid subcutaneous injection of 25 mL of air was made between the scapulae of each rat. […] The test compound was administered in daily oral doses for 7 days beginning on the day of pouch formation. The compound to be tested was suspended in 1% gum tragacanth. Twenty-four hours after the last medication, the pouches were dissected free, and the fluid volume was measured. The inhibition of liquid exudate is a measure of the anti=inflammatory activity.

SMILES | reduction in adrenal weight (Mature female rats; dose level of 1 mg/kg) [%] | reduction in body weight gain (Mature female rats; dose level of 1 mg/kg) [%] | reduction in thymus weight (Mature female rats; dose level of 1 mg/kg) [%] | liver glycogen deposition value ([1]; dose level of 9 mg/kg/day x 5, oral, adrenalectomized male rats, vehicle 2.2 + 0.04 mg/g) | glucocorticoid activity by the liver glycogen deposition test ([1]; oral, rats, general statement) | ED50 (Male rats; Rattus norvegicus, 168 h, daily oral doses for 7 days, male rats, inhibition of liquid exudate) [mg/kg] | anti-inflammatory activity by the a-tocopherol pouch test (Male rats; rats, general statement) | reduction in adrenal weight (Mature female rats; dose level of 5 mg/kg) [%] | reduction in body weight gain (Mature female rats; dose level of 5 mg/kg) [%] | reduction in thymus weight (Mature female rats; dose level of 5 mg/kg) [%] | activity in the a-tocopherol pouch test (Male rats; dose level of 100 mg/kg, daily oral doses for 7 days, male rats)
CC12Cc3cnn(-c4ccc(F)cc4)c3C=C1CCC1OC3(CC=C12)C(=O)c1ccccc1C3=O (centres unmarked) [Compound I (R = F), 8'-(4-Fluorophenyl)-2',3',5',6',ll',lla'-hexahydro-lla'-methylspiro-2H-indene[2,3']-3H-pyrazolo[4",5":7',6']-naphtho-[2,1-b] pyran-1,3-dione] | 56 | 129 | 61 | 21.8 + 4.4 mg/g of tissue | oral glucocorticoid activity | 10 | anti-inflammatory activity | – | – | – | –
CC12Cc3cnn(-c4ccccc4)c3C=C1CCC1OC3(CC=C12)C(=O)c1ccccc1C3=O (centres unmarked) [Compound I (R = H), 2',3',5',6',11',11a'-Hexahydro-11a'-methyl-8'-phenylspiro 2H-indene[2,3']-3H-pyrazolo[4",5":7',6']naphtho[2,1-b] pyran-1,3-dione] | – | – | – | – | – | – | – | 38 | 62 | 51 | inactive
